The values below come from ChEMBL document CHEMBL4052712, “Design and optimization of highly-selective, broad spectrum fungal CYP51 inhibitors” (Bioorg Med Chem Lett, 2017).

As a reminder, the IC50 is the concentration needed to halve the response being measured. By half-life is commonly meant how long it takes for the measured level to halve. The term Tmax denotes the time from dosing to the highest level.

For series [1], the target named is T1, Steroid 17-alpha-hydroxylase/17,20 lyase (Homo sapiens, UniProt P05093).
T1 sequence (P05093 whole entry): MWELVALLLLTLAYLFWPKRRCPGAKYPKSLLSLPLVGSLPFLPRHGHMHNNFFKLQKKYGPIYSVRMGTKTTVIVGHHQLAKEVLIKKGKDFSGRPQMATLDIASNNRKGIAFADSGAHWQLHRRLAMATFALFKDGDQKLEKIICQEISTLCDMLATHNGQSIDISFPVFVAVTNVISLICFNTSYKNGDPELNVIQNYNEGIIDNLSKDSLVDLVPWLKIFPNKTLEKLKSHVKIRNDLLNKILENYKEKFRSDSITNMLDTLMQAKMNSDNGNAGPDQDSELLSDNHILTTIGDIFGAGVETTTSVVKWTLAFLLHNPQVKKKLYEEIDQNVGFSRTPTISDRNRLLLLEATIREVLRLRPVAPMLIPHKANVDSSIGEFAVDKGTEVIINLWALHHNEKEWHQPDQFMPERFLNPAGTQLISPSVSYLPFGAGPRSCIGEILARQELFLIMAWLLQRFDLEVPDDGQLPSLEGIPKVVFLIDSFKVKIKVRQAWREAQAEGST
Briefly: Inhibition of CYP17 hydroxylase in human hepatocyte microsomes using pregnenolone substrate by HPLC/MS/MS method. The series is classed as ADME.

The nature of series [2]: Half life in Swiss albino mouse lung at 5 mg/kg, po measured during 0.5 to 48 hrs post dose by HPLC/MS/MS method. Type of series: ADME, organism-based.
Series [3] addresses T1, Steroid 17-alpha-hydroxylase/17,20 lyase. The series can be described thus: Inhibition of CYP17 lyase in human hepatocyte microsomes using 17a-hydroxypregnenolone substrate by HPLC/MS/MS method. The series is classed as ADME.
Series [4] deals with Cytochrome P450 2C9 (Homo sapiens, UniProt P11712). Briefly: Inhibition of CYP2C9 in human hepatocyte microsomes using diclofenac substrate by HPLC/MS/MS method. The series is classed as ADME.
Sequence of Cytochrome P450 2C9 (P11712 whole entry): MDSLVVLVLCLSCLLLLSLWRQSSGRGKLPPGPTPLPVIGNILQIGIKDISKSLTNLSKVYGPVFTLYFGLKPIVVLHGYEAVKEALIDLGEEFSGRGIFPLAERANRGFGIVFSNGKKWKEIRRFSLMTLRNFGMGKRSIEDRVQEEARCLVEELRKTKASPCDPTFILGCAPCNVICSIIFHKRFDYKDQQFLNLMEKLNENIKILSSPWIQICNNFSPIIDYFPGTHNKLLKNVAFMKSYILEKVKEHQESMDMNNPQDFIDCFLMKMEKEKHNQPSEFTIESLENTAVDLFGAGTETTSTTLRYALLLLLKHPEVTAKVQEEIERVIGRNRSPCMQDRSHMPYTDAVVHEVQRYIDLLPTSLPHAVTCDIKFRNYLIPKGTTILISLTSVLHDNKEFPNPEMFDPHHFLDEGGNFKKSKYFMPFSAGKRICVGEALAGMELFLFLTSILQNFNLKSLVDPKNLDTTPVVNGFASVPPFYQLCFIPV
The test system of series [5] is Brain. The series can be described thus: Drug level in Swiss albino mouse brain at 5 mg/kg, po after 48 hrs assessed as relative Cmax level relative to plasma drug level by HPLC/MS/MS method. The series is classed as ADME, organism-based.
The target in series [6] is T2, Cytochrome P450 11B2, mitochondrial (Homo sapiens, UniProt P19099).
T2 sequence (P19099 whole entry): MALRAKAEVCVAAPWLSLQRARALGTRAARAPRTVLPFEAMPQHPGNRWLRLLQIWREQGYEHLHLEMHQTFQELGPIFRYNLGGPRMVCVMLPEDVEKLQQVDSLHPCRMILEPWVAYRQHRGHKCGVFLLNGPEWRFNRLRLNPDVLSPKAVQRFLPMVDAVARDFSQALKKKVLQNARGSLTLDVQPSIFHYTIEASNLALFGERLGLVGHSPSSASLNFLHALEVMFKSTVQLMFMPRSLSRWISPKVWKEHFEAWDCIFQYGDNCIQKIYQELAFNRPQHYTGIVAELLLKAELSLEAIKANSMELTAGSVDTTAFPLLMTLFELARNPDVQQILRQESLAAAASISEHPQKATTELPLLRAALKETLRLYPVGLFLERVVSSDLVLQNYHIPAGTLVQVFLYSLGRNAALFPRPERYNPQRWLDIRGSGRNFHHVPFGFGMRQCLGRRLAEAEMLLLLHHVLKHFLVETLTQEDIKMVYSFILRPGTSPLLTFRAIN
The series can be described thus: Inhibition of CYP11B2 in human hepatocyte microsomes using deoxycorticosteroid substrate by HPLC/MS/MS method. The series is classed as ADME.

Series [7] can be described thus: Half life in Swiss albino mouse kidney at 5 mg/kg, po measured during 0.5 to 48 hrs post dose by HPLC/MS/MS method. The series is classed as ADME, organism-based.
Series [8] deals with T3, Cytochrome P450 11B1, mitochondrial (Homo sapiens, UniProt P15538).
T3 sequence (P15538 whole entry): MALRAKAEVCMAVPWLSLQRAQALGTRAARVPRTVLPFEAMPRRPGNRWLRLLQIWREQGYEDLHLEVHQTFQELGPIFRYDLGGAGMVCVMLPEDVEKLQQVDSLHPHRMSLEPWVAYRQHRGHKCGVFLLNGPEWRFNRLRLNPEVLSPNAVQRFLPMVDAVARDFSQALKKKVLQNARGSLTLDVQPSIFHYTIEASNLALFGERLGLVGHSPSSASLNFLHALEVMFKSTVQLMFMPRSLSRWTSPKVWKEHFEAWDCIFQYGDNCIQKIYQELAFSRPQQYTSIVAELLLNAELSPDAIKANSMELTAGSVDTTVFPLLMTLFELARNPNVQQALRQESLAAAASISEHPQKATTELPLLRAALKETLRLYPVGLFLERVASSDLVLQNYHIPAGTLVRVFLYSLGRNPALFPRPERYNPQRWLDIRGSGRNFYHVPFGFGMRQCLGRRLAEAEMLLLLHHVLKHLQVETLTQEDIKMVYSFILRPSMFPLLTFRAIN
The series can be described thus: Inhibition of CYP11B1 in human hepatocyte microsomes using deoxycortisol substrate by HPLC/MS/MS method. The series is classed as ADME.

The target of series [9] is T4, Aromatase (Homo sapiens, UniProt P11511).
T4 sequence (P11511 whole entry): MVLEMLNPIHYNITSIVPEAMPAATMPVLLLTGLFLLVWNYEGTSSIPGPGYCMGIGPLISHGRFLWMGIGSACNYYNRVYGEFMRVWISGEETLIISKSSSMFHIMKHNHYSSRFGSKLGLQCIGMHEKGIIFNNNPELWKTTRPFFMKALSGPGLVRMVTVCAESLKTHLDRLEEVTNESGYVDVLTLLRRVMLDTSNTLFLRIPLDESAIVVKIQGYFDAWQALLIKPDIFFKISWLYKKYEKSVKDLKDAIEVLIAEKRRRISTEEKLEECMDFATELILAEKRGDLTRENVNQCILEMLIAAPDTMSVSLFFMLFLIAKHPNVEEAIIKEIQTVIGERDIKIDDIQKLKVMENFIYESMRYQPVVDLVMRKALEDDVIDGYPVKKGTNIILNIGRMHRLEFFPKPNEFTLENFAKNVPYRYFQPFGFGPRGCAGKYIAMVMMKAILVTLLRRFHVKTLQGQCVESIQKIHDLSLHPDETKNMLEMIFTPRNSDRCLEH
The series can be described thus: Inhibition of CYP19 in human hepatocyte microsomes using testosterone substrate by HPLC/MS/MS method. Type of series: ADME.

Series [10] has as its target Cytochrome P450 3A4 (Homo sapiens, UniProt P08684). The series can be described thus: Inhibition of CYP3A4 in human hepatocyte microsomes using testosterone substrate by HPLC/MS/MS method. Type of series: ADME.
The nature of series [11]: Half life in Swiss albino mouse plasma at 5 mg/kg, po measured during 0.5 to 48 hrs post dose by HPLC/MS/MS method. The series is classed as ADME, organism-based.
Series [12] has as its system Brain. Briefly: Drug level in Swiss albino mouse brain at 5 mg/kg, po after 48 hrs assessed as relative AUC (48 hrs) level relative to plasma drug level by HPLC/MS/MS method. The series is classed as ADME, organism-based.
In series [13] the test system is Lung. Briefly: Drug level in Swiss albino mouse lung at 5 mg/kg, po after 48 hrs assessed as relative AUC (48 hrs) level relative to plasma drug level by HPLC/MS/MS method. The series is classed as ADME, organism-based. The following applies: other tissue.
The nature of series [14]: Tmax in Swiss albino mouse at 5 mg/kg, po measured during 0.5 to 48 hrs post dose by HPLC/MS/MS method. Type of series: ADME, organism-based. The following applies: in vivo.
Series [15] concerns Lung. Briefly: Drug level in Swiss albino mouse lung at 5 mg/kg, po after 48 hrs assessed as relative Cmax level relative to plasma drug level by HPLC/MS/MS method. The series is classed as ADME, organism-based. The following applies: in vivo.

Sequence of Cytochrome P450 3A4 (P08684 whole entry): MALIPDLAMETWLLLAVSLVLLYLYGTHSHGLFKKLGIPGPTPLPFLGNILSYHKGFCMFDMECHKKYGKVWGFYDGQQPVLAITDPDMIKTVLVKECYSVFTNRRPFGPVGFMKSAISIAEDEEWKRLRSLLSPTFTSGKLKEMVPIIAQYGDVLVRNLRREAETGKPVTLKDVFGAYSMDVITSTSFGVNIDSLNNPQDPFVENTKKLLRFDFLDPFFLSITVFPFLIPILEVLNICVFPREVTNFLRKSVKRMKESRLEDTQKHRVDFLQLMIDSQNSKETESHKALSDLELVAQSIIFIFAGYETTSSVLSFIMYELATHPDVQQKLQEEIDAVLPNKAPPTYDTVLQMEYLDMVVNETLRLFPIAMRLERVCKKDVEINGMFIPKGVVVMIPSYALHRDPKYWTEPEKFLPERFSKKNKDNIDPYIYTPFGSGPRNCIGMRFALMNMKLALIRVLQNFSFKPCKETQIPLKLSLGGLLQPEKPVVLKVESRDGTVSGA

For the compound `N#Cc1ccc(COc2ccc(C#Cc3ccc(C(F)(F)C(O)(Cn4cnnn4)c4ccc(F)cc4F)nc3)cc2)cc1` (single isomer, unassigned; (+)), the half-inhibitory concentration (IC50) in series [1] was greater than 100 µM; in series [3] it was 38 µM; in series [4] it was greater than 200 µM; in series [6], greater than 100 µM; in series [8], greater than 100 µM; in [9], greater than 100 µM. Besides, in series [10], the concentration for half-maximal inhibition (IC50) is greater than 200 µM. For the same compound, the half-life in series [2] is 16 to 19 h; in [7], 16 to 19 h; in series [11], 24 h. Further, the Drug uptake in series [5] came out at 58%; in [12], 65%; in series [13] it was 94%; in series [15], 116%. Also, the Tmax in series [14] is 4 h.
